Test results from ChEMBL document CHEMBL5729478, “Alpha-5 beta-1 inhibitors” (2022).

These compounds were tested against Integrin alpha-5/beta-1 (Homo sapiens, UniProt P05556+P08648) (assay: Cell Adhesion Assay: Evaluation of cell attachment to extracellular matrix proteins was performed as previously described by Yokosaki et al, J. Biol. Chem., 271: (39): 24144-24150 (1996). Briefly, wells of non-tissue culture-treated polystyrene 96-well flat-bottom microtiter plates (Linbro/Titertek, Flow Laboratories, McLean, Va.) were coated by incubation with 100 μl of each substrate in PBS at 37° C. for 1 hour. 96-well flat-bottomed tissue culture plates were coated with human plasma fibronectin for 1 hour at 37° C. After incubation, wells were washed with PBS, then blocked with 1% bovine serum albumin (BSA) for one hour. Control wells were filled with 1% BSA. SW480 cells were detached using 10 mM EDTA and resuspended in serum-free DMEM. For blocking experiments, cells were incubated with 10 μg/ml of the antibody for 15 minutes at 4° C. before plating. The plates were centrifuged at 10 g for 5 minutes before incubation for 1 hour at 37° C. in humidified 5% CO2. Nonadherent cells were removed by centrifugation (top side down) at 10 g for 5 minutes. Attached cells were stained with 0.5% crystal violet, and the wells were washed with PBS. The relative number of cells in each well was evaluated after solubilization in 40 μl of 2% Triton X-100 by measuring absorbance at 595 nm in a microplate reader. All determinations were carried out in triplicate.).
Integrin alpha-5/beta-1, sequence (P05556 21-798 limits assumed): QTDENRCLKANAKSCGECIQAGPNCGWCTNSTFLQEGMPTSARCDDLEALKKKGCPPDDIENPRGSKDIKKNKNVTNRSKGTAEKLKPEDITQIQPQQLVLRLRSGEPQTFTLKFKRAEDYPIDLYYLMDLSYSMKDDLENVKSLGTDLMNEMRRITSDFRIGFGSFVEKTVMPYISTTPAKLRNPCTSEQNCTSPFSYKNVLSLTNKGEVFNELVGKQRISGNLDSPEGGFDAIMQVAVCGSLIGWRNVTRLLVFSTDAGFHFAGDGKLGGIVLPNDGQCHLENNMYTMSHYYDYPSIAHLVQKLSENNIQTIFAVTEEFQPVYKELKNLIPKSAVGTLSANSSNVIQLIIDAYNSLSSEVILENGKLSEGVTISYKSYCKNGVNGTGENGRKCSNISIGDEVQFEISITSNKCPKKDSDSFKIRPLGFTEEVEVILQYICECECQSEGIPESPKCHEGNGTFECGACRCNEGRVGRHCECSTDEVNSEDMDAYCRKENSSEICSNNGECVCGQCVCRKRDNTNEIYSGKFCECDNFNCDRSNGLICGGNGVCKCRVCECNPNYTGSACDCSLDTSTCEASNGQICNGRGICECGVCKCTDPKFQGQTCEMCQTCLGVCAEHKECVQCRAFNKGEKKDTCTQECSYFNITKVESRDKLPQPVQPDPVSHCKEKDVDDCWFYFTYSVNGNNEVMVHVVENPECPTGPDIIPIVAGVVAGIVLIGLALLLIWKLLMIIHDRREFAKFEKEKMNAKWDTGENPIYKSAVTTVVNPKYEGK
Integrin alpha-5/beta-1, sequence (P08648 42-894 limits assumed): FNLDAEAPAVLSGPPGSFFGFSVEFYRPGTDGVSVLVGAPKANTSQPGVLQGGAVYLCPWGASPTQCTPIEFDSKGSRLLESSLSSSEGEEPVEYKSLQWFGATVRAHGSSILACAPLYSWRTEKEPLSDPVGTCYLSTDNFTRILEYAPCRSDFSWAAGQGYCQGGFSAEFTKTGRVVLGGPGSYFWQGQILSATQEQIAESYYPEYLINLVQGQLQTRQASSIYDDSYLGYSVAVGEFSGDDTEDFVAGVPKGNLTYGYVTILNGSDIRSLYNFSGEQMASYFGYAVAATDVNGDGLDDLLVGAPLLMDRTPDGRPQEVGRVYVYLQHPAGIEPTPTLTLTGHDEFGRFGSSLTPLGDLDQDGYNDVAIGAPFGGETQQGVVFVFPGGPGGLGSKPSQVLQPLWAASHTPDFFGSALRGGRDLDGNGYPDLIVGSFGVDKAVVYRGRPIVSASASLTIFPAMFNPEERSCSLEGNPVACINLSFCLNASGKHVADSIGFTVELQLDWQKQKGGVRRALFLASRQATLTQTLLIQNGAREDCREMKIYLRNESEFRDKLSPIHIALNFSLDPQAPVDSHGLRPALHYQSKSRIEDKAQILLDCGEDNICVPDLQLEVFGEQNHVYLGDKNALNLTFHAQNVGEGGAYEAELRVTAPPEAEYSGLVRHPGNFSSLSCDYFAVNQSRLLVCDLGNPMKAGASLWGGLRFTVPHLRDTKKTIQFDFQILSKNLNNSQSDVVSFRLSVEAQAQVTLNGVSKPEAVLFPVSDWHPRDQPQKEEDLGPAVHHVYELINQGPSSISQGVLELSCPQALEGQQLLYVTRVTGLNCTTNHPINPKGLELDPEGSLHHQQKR
Integrin alpha-5/beta-1, sequence (P08648 895-1049 limits assumed): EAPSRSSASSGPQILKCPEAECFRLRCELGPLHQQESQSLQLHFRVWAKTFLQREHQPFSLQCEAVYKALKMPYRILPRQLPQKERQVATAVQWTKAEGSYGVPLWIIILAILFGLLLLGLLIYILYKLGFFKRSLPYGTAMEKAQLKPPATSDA

Row | Compound | IC50
1 | O=C(CNC(=O)c1cccc(NC2=NCC(O)CN2)c1)NC[C@H](NC(=O)c1c(Cl)cc(-c2ccccc2)cc1Cl)C(=O)O (stereo partly drawn) | < 0.1 µM
2 | O=C(CNC(=O)c1cccc(NC2=NCCCO2)c1)NC[C@H](NC(=O)c1c(Cl)cc(-c2ccccc2)cc1Cl)C(=O)O | < 0.1 µM
3 | N#Cc1cc(NC(=N)N)cc(C(=O)NCC(=O)NC[C@H](NC(=O)c2c(Cl)cc(-c3ccccc3)cc2Cl)C(=O)O)c1 | < 0.1 µM
